Test results: US20100267561A1, “HERBICIDAL PYRIDAZINONE DERIVATIVES” (priority 2007, published 2010)

Columns and labels:
Format in all cases: in vivo
rice (Oryza sativa) = assay: Test B flooded paddy test plant response
In short: (§1)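 Compounds were added directly to paddy water over 2-leaf-stage plants in pots flooded 3 cm above soil, water depth maintained. Visual injury scored against controls after 13 to 15 days in greenhouse, 0 (none) to 100 (complete control); dash indicates no result.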

[1] = system: ducksalad (Heteranthera limosa); assay: Test B flooded paddy test plant response
In short: as §1

[2] = system: eastern black (E.B.) nightshade (Solanum ptycanthum); assay: Test B pre-/postemergence plant response; conditions: Preemergence; for Nightshade, E. B. plant response rating: scale 0 to 100
In short: (§2)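 Seeds were sown and sprayed preemergence, while plants at 2 to 18 cm (1- to 4-leaf stage) got postemergence sprays. Compounds were formulated in a non-phytotoxic solvent mixture with surfactant. After 13 to 15 days in a greenhouse, injury was rated visually against untreated controls, 0 (no effect) to 100 (complete control).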

[3] = system: common (oilseed) sunflower (Helianthus annuus); assay: Test B pre-/postemergence plant response; conditions: Preemergence; for Sunflower plant response rating: scale 0 to 100
In short: as §2

[4] = system: giant foxtail (Setaria faberii); assay: Test B pre-/postemergence plant response
In short: as §2

[5] = system: velvetleaf (Abutilon theophrasti); assay: Test B pre-/postemergence plant response
In short: as §2

[6] = system: woolly cupgrass (Eriochloa villosa); assay: Test B pre-/postemergence plant response
In short: as §2

[7] = system: goosegrass (Eleusine indica); assay: Test B pre-/postemergence plant response
In short: as §2

[8] = system: large crabgrass (Digitaria sanguinalis); assay: Test B pre-/postemergence plant response
In short: as §2

[9] = system: green foxtail (Setaria viridis); assay: Test B pre-/postemergence plant response
In short: as §2

[10] = system: common ragweed (Ambrosia elation); assay: Test B pre-/postemergence plant response; conditions: for Ragweed plant response rating: postemergence, 0-100 scale
In short: as §2

[11] = system: pigweed (Amaranthus retroflexus); assay: Test B pre-/postemergence plant response
In short: as §2

wild oat (Avena fatua) = assay: Test B pre-/postemergence plant response
In short: as §2

[12] = system: johnsongrass (Sorghum halepense); assay: Test B pre-/postemergence plant response
In short: as §2

[13] = Flood (flooded paddy test), 62 g ai/ha, scale 0 to 100, 0 no effect, 100 complete control
[14] = Flood (flooded paddy test), 125 g ai/ha, scale 0 to 100, 0 no effect, 100 complete control
[15] = Flood (flooded paddy test), 250 g ai/ha, scale 0 to 100, 0 no effect, 100 complete control
[16] = Flood, 31 g ai/ha, scale 0 to 100
[17] = 31 g ai/ha, scale 0 to 100 (0 no effect, 100 complete control)
[18] = 62 g ai/ha, 0 to 100 scale, 0 no effect, 100 complete control
[19] = 8 g ai/ha, postemergence, 0-100 scale
[20] = Postemergence, 16 g ai/ha, scale 0 to 100
[21] = Postemergence, 31 g ai/ha, scale 0 to 100
[22] = Postemergence, 62 g ai/ha, scale 0 to 100, 0 no effect, 100 complete control
[23] = Preemergence, 31 g ai/ha, scale 0 to 100 (0 no effect, 100 complete control)
[24] = Preemergence, 62 g ai/ha, 0 to 100 scale, 0 no effect, 100 complete control
[25] = Preemergence, 8 g ai/ha, scale 0 to 100
[26] = Preemergence, 16 g ai/ha, scale 0 to 100
[27] = 16 g ai/ha, postemergence, 0-100 scale

Q: What does the source list for `CCc1cc(-c2ccc(C(F)(F)F)cc2)nn1-c1c(O)cnn(CC)c1=O` [Compound 67]?
A: Plant response rating, Rice (rice (Oryza sativa); [13]): 0; Plant response rating, Rice (rice (Oryza sativa); [14]): 0; Plant response rating, Rice (rice (Oryza sativa); [15]): 15; Plant response rating, Rice (rice (Oryza sativa); [16]): 0; Plant response rating, Ducksalad [1, 13]: 0; Plant response rating, Ducksalad [1, 14]: 0; Plant response rating, Ducksalad [1, 15]: 75; Plant response rating, Ducksalad [1, 16]: 0; Plant response rating, Nightshade, E. B. [2, 17]: 0; Plant response rating, Nightshade, E. B. [2, 18]: 0; Nightshade, E. B. plant response rating ([2]; 8 g ai/ha): 0; Nightshade, E. B. plant response rating ([2]; 16 g ai/ha): 0; Plant response rating, Sunflower [3, 17]: 0; Plant response rating, Sunflower [3, 18]: 0; Sunflower plant response rating ([3]; 8 g ai/ha): 0; Sunflower plant response rating ([3]; 16 g ai/ha): 0; Foxtail, Giant plant response rating [4, 19]: 85; Plant response rating, Foxtail, Giant [4, 20]: 95; Plant response rating, Foxtail, Giant [4, 21]: 100; Plant response rating, Foxtail, Giant [4, 22]: 100; Plant response rating, Foxtail, Giant [4, 23]: 0; Plant response rating, Foxtail, Giant [4, 24]: 0; Foxtail, Giant plant response rating [4, 25]: 0; Foxtail, Giant plant response rating [4, 26]: 0; Velvetleaf plant response rating [5, 19]: 0; Velvetleaf plant response rating [5, 27]: 0; Plant response rating, Velvetleaf [5, 21]: 0; Plant response rating, Velvetleaf [5, 22]: 0; Plant response rating, Velvetleaf [5, 23]: 0; Plant response rating, Velvetleaf [5, 24]: 0; Velvetleaf plant response rating [5, 25]: 0; Velvetleaf plant response rating [5, 26]: 0; Cupgrass, Woolly plant response rating [6, 19]: 90; Plant response rating, Cupgrass, Woolly [6, 20]: 100; Plant response rating, Cupgrass, Woolly [6, 21]: 100; Plant response rating, Cupgrass, Woolly [6, 22]: 100; Plant response rating, Cupgrass, Woolly [6, 23]: 0; Plant response rating, Cupgrass, Woolly [6, 24]: 0; Cupgrass, Woolly plant response rating [6, 25]: 0; Cupgrass, Woolly plant response rating [6, 26]: 0; Goosegrass plant response rating [7, 19]: 65; Goosegrass plant response rating [7, 27]: 70; Plant response rating, Goosegrass [7, 21]: 85; Plant response rating, Goosegrass [7, 22]: 90; Plant response rating, Goosegrass [7, 23]: 0; Plant response rating, Goosegrass [7, 24]: 60; Goosegrass plant response rating [7, 25]: 0; Goosegrass plant response rating [7, 26]: 0; Crabgrass, Large plant response rating [8, 19]: 70; Plant response rating, Crabgrass, Large [8, 20]: 98; Plant response rating, Crabgrass, Large [8, 21]: 100; Plant response rating, Crabgrass, Large [8, 22]: 100; Plant response rating, Crabgrass, Large [8, 23]: 0; Plant response rating, Crabgrass, Large [8, 24]: 0; Crabgrass, Large plant response rating [8, 25]: 0; Crabgrass, Large plant response rating [8, 26]: 0; Foxtail, Green plant response rating [9, 19]: 65; Plant response rating, Foxtail, Green [9, 20]: 70; Plant response rating, Foxtail, Green [9, 21]: 98; Plant response rating, Foxtail, Green [9, 22]: 100; Plant response rating, Foxtail, Green [9, 23]: 100; Plant response rating, Foxtail, Green [9, 24]: 100; Foxtail, Green plant response rating [9, 25]: 100; Foxtail, Green plant response rating [9, 26]: 100; Ragweed plant response rating ([10]; 8 g ai/ha): 0; Ragweed plant response rating ([10]; 16 g ai/ha): 0; Plant response rating, Ragweed [10, 21]: 0; Plant response rating, Ragweed [10, 22]: 0; Plant response rating, Ragweed [10, 24]: 0; Pigweed plant response rating [11, 19]: 0; Pigweed plant response rating [11, 27]: 0; Plant response rating, Pigweed [11, 21]: 0; Plant response rating, Pigweed [11, 22]: 0; Plant response rating, Pigweed [11, 23]: 0; Plant response rating, Pigweed [11, 24]: 0; Pigweed plant response rating [11, 25]: 0; Pigweed plant response rating [11, 26]: 0; Oat, Wild plant response rating (wild oat (Avena fatua); [19]): 100; Oat, Wild plant response rating (wild oat (Avena fatua); [27]): 100; Plant response rating, Oat, Wild (wild oat (Avena fatua); [21]): 100; Plant response rating, Oat, Wild (wild oat (Avena fatua); [22]): 100; Plant response rating, Oat, Wild (wild oat (Avena fatua); [23]): 95; Plant response rating, Oat, Wild (wild oat (Avena fatua); [24]): 100; Oat, Wild plant response rating (wild oat (Avena fatua); [25]): 90; Oat, Wild plant response rating (wild oat (Avena fatua); [26]): 95; Johnsongrass plant response rating [12, 19]: 80; Johnsongrass plant response rating [12, 27]: 98; Plant response rating, Johnsongrass [12, 21]: 100; Plant response rating, Johnsongrass [12, 22]: 100; Plant response rating, Johnsongrass [12, 23]: 100; Plant response rating, Johnsongrass [12, 24]: 100; Johnsongrass plant response rating [12, 25]: 70; Johnsongrass plant response rating [12, 26]: 90
